Reference: patent publication US8278306B2 (Vertex Pharmaceuticals Incorporated, priority 2006, dated 2012)
pKi: −log10 of the molar value.

How the values were obtained:
CYP1A2 = target: T1, CYP1A2 (Homo sapiens, UniProt P05177); test: Cytochrome P450 isozyme inhibition, fluorescent Vivid substrate; format: in vitro ADME; details: 5 nM CYP1A2, 2 μM Vivid 1A2 Blue, 60 minutes
T1 sequence (P05177 1-516): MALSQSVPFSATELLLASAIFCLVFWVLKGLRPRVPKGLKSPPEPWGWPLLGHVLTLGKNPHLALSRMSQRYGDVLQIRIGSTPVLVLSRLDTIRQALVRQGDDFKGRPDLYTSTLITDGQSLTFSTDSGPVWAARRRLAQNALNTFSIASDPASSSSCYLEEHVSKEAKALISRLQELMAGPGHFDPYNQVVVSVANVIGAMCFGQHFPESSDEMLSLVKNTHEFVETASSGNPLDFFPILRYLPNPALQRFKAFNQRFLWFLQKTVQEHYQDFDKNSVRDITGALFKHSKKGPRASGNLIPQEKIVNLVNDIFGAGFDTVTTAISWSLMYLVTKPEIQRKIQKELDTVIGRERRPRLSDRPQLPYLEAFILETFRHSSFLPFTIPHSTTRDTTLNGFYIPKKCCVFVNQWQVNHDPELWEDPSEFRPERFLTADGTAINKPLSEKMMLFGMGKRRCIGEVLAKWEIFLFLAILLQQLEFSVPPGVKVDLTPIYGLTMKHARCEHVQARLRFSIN
Method: (§1) Selected compounds of the invention were assayed for their ability to inhibit various cytochrome P450 isozymes, such as, for example CYP2D6, CYP2C9, CYP1A2, CYP2C19, CYP3A4, CYP2C9, and CYP3A4 (human liver microsome). Such assays are described by Crespi et al., Anal. Biochem. 248:188-90, 1997; Ekins et al., J. Pharmacol. Exp. Ther. 290, 429-38, 1999; and Ekins et al., J. Pharmacol. Exp. Ther. 291, 424-33, 1999. In a typical isozyme inhibition experiment, test compounds are placed into a microwell on a microtiter plate as an 8 nL solution (2 mM in 75% DMSO/water). The plate is centrifuged for 2 minutes at approximately 1000 rpm to shift the compound to the bottom of the well. Polyvinylpyrrolidone (PVP/10K, 100 nL, 0.2% in 75% DMSO/water) is added to the well and this excipient also centrifuged for 2 minutes at approximately 1000 rpm to ensure mixing with the compound. The plates containing the wells are dried in vacuo. Distilled water (800 nL) is added to the wells containing compound, the background control wells, and the positive control wells, followed by the addition of 200 nL of phosphate buffer (500 mM potassium phosphate butter at pH=8.4). The positive control cells contain a drug such as, for example, miconazole. Insect baculosomes (PanVera P2315) in […] phosphate buffer was added to the background control wells and the plate was scanned for compound fluorescence. […] Therefore, CYP450 isozyme (400 nL) and recycling buffer (3.3 mM glucose-6-phosphate, 0.4 units/mL glucose-6-phosphate dehydrogenase, 100 mM MgCl2, and 0.00025% Antifoam 289) in 100 mM phosphate buffer was added to each well containing compound and background control to obtain the following concentrations: 5 nM CYP3A4, 10 nM CYP2C9, 5 nM CYP1A2, 5 nM CYP2C19, and 20 nM CYP2D6. After incubation for 60 minutes, the wells were read with a fluorescent plate reader.

CYP2C9 = CYP2C9 (Homo sapiens, UniProt P11712); test: as above; format: in vitro ADME; details: 10 nM CYP2C9, 1 μM Vivid 2C9 Green, 60 minutes
CYP2C9, sequence (P11712 whole entry): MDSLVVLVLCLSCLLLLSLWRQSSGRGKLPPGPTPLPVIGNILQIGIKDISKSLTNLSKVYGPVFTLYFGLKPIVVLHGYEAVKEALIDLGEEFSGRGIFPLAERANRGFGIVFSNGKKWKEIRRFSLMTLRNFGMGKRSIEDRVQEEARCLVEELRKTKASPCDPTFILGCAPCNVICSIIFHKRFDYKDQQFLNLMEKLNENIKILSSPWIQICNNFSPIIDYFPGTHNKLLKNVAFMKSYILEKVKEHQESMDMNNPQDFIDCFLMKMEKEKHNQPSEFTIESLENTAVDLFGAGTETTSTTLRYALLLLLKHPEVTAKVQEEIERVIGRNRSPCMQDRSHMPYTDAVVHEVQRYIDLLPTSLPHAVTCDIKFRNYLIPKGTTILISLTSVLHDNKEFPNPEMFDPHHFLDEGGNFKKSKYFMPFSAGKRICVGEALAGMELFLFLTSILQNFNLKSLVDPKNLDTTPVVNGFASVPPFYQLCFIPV
Method: as §1

CYP2C19 = CYP2C19 (Homo sapiens, UniProt P33261); test: as above; format: in vitro ADME; details: 5 nM CYP2C19, 10 μM Vivid 2C19 Blue, 60 minutes
CYP2C19, sequence (P33261 whole entry): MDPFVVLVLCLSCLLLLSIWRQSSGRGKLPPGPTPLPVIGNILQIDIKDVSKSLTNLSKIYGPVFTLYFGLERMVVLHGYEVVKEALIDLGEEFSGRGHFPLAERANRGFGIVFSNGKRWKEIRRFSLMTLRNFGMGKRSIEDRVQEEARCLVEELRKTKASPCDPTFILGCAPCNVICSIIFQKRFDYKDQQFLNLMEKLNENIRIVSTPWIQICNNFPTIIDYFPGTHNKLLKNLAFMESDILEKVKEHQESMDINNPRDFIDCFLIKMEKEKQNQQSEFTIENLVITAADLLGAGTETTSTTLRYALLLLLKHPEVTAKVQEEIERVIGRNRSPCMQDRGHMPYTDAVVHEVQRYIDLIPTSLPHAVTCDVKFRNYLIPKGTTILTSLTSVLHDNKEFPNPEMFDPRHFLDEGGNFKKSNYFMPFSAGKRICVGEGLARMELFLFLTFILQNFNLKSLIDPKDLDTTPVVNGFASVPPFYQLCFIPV
Method: as §1

CYP2D6 = CYP2D6 (Homo sapiens, UniProt P10635); test: as above; format: in vitro ADME; details: 20 nM CYP2D6, 10 μM Vivid 2D6 Blue, 60 minutes
CYP2D6, sequence (P10635 whole entry): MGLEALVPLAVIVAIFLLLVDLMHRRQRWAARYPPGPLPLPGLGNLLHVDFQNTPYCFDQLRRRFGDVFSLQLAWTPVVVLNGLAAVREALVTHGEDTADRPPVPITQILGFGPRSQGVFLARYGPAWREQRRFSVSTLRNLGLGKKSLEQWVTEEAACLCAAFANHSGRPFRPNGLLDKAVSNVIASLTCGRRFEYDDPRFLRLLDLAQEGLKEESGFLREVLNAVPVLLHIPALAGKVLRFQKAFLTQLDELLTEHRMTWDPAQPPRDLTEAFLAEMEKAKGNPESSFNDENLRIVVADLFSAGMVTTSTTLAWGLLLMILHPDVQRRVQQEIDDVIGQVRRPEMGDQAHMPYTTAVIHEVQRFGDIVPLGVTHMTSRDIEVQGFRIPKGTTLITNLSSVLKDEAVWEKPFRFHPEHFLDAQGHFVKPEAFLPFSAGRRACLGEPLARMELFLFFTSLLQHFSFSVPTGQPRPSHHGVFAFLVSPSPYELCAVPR
Method: as §1

ROCK I (AA 6-553) = target: T2, ROCK I (AA 6-553) (Homo sapiens, UniProt Q13464); test: ROCK inhibition assay, standard coupled enzyme system; format: biochemical; details: 45 nM ROCK I, 45 μM ATP, 200 μM peptide, 30° C.
T2 construct: ROCK I (AA 6-553)
T2 sequence (Q13464 6-553, species assumed): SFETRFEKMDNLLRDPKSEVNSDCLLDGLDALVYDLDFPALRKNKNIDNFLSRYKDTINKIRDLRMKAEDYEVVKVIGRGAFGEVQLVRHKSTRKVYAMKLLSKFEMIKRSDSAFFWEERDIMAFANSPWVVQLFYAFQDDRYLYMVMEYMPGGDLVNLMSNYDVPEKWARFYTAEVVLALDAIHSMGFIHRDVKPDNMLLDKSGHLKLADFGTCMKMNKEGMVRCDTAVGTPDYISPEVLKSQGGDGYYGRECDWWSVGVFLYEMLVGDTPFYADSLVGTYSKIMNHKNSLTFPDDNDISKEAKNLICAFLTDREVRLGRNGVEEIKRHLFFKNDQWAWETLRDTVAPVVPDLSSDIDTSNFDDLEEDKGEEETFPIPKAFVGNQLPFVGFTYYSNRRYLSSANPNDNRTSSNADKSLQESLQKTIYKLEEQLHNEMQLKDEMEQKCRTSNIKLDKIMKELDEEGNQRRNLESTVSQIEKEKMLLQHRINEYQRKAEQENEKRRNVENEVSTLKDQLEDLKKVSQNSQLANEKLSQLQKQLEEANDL
Method: Reactions were carried out in a solution containing 100 mM HEPES (pH 7.5), 10 mM MgCl2, 25 mM NaCl, 2 mM DTT and 1.5% DMSO.

CYP3A4 = CYP3A4 (Homo sapiens, UniProt P08684); test: Cytochrome P450 isozyme inhibition, fluorescent Vivid substrate; format: in vitro ADME; details: 5 nM CYP3A4, 5 μM Vivid 3A4 Red, 60 minutes
CYP3A4, sequence (P08684 whole entry): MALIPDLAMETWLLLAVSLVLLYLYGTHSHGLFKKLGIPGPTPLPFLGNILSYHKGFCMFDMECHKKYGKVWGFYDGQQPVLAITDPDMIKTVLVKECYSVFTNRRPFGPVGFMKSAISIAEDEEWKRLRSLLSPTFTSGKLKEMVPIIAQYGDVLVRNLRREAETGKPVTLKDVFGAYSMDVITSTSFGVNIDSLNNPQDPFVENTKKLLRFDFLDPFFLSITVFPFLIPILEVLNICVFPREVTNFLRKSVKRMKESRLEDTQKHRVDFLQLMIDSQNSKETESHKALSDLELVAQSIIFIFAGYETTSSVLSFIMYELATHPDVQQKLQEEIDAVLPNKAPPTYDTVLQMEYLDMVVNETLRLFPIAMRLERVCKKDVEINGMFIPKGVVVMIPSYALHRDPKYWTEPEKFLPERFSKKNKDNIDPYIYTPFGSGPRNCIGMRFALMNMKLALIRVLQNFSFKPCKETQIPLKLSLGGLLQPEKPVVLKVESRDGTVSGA
Method: Selected compounds of the invention were assayed for their ability to inhibit various cytochrome P450 isozymes, such as, for example CYP2D6, CYP2C9, CYP1A2, CYP2C19, CYP3A4, CYP2C9, and CYP3A4 (human liver microsome). Such assays are described by Crespi et al., Anal. Biochem. 248:188-90, 1997; Ekins et al., J. Pharmacol. Exp. Ther. 290, 429-38, 1999; and Ekins et al., J. Pharmacol. Exp. Ther. 291, 424-33, 1999. […] The plate is centrifuged for 2 minutes at approximately 1000 rpm to shift the compound to the bottom of the well. […] Distilled water (800 nL) is added to the wells containing compound, the background control wells, and the positive control wells, followed by the addition of 200 nL of phosphate buffer (500 mM potassium phosphate butter at pH=8.4). The positive control cells contain a drug such as, for example, miconazole. Insect baculosomes (PanVera […]) in […] phosphate buffer was added to the background control wells and the plate was scanned for compound fluorescence. […] After incubation for 60 minutes, the wells were read with a fluorescent plate reader.

[1] = target: T3, CYP3A4 (human liver microsome) (Homo sapiens, UniProt P08684); test: Cytochrome P450 inhibition, human liver microsome; format: in vitro ADME; details: read-out: CYP3A4 (HLM) Ki
T3 construct: CYP3A4 (human liver microsome); from tissue; host or cells: human liver microsomes
T3 sequence (P08684 whole entry): as above
Method: Selected compounds of the invention were assayed for their ability to inhibit various cytochrome P450 isozymes, such as, for example CYP2D6, CYP2C9, CYP1A2, CYP2C19, CYP3A4, CYP2C9, and CYP3A4 (human liver microsome). Such assays are described by Crespi et al., Anal. Biochem. 248:188-90, 1997; Ekins et al., J. Pharmacol. Exp. Ther. 290, 429-38, 1999; and Ekins et al., J. Pharmacol. Exp. Ther. 291, 424-33, 1999. […] The plate is centrifuged for 2 minutes at approximately 1000 rpm to shift the compound to the bottom of the well. […] Distilled water (800 nL) is added to the wells containing compound, the background control wells, and the positive control wells, followed by the addition of 200 nL of phosphate buffer (500 mM potassium phosphate butter at pH=8.4). The positive control cells contain a drug such as, for example, miconazole. […] After incubation for 60 minutes, the wells were read with a fluorescent plate reader.

| Structure (SMILES) | pKi (CYP1A2) | pKi (CYP2C9) | pKi (CYP2C19) | pKi (CYP2D6) | pKi (ROCK I (AA 6-553)) | pKi (CYP3A4) | pKi [1] |
| --- | --- | --- | --- | --- | --- | --- | --- |
| COc1cccc(CC(=O)Nc2cc(-c3ccnc(F)c3)cs2)c1 [Compound 61] | < 5.00 | 5.00 to 6.00 | 5.00 to 6.00 | < 5.00 |  |  |  |
| COc1cccc(CC(=O)Nc2cc(-c3ccnc(Cl)c3)cs2)c1 [Compound 62] | < 5.00 | 5.00 to 6.00 |  |  |  |  |  |
| COc1cccc(CC(=O)Nc2cc(-c3ccnc(N)c3)cs2)c1 [Compound 64, N-(4-(2-aminopyridin-4-yl)thiophen-2-yl)-2-(3-methoxyphenyl)acetamide] | 5.00 to 6.00 | 5.00 to 6.00 | < 5.00 | 5.00 to 6.00 |  |  |  |
| O=C(Cc1cccc(OCCCC2CCNCC2)c1)Nc1cc(-c2ccnc(F)c2)cs1 [Compound 72] | < 5.00 |  | 5.00 to 6.00 | 5.00 to 6.00 | > 7.00 | 5.00 to 6.00 | < 5.00 |
| CN1CCN(CCOc2cccc(CC(=O)Nc3cc(-c4ccnc(F)c4)cs3)c2)CC1 [Compound 73] | < 5.00 | < 5.00 |  | < 5.00 | > 7.00 | < 5.00 | < 5.00 |
| CN1CCN(CCCOc2cccc(CC(=O)Nc3cc(-c4ccnc(F)c4)cs3)c2)CC1 [Compound 74] | < 5.00 | < 5.00 | < 5.00 | < 5.00 | > 7.00 | < 5.00 | < 5.00 |
| Nc1cc(-c2csc(NC(=O)Cc3cccc(OCCCC4CCNCC4)c3)c2)ccn1 [Compound 77] | < 5.00 | 5.00 to 6.00 | 5.00 to 6.00 | > 6.00 | > 7.00 | 5.00 to 6.00 | 5.00 to 6.00 |
| COc1cccc(CC(=O)Nc2cc(-c3ccnc(C)c3)cs2)c1 [Compound 80] | < 5.00 | 5.00 to 6.00 | 5.00 to 6.00 | < 5.00 | 6.00 to 7.00 | 5.00 to 6.00 | 5.00 to 6.00 |
| Cc1cc(-c2csc(NC(=O)Cc3cccc(O)c3)c2)ccn1 [Compound 85] | < 5.00 | < 5.00 | 5.00 to 6.00 | < 5.00 | > 7.00 | < 5.00 | < 5.00 |
| Cc1cc(-c2csc(NC(=O)Cc3ccccc3)c2)ccn1 [Compound 87] |  |  |  |  | 6.00 to 7.00 |  |  |
| O=C(Cc1cccc(O)c1)Nc1cc(-c2ccnc(F)c2)cs1 [Compound 88] |  |  |  |  | > 7.00 |  |  |
| Cc1cc(-c2csc(NC(=O)Cc3cccc(OCCCN4CCNCC4)c3)c2)ccn1 [Compound 89] | < 5.00 | < 5.00 | 5.00 to 6.00 |  | > 7.00 | < 5.00 | < 5.00 |
| Cc1cc(-c2csc(NC(=O)Cc3cccc(OCCCN4CCN(C)CC4)c3)c2)ccn1 [Compound 90] | < 5.00 | < 5.00 |  |  | 6.00 to 7.00 | < 5.00 | < 5.00 |
| Cc1cc(-c2csc(NC(=O)Cc3cccc(OCCN4CCNCC4)c3)c2)ccn1 [Compound 92] | < 5.00 | < 5.00 | < 5.00 |  | 6.00 to 7.00 | < 5.00 | < 5.00 |
